Experimental data taken from ChEMBL document CHEMBL5120977, “Orexin Receptor Agonists as Possible Treatment for Narcolepsy and Idiopathic Hypersomnia” (ACS Med Chem Lett, 2022).

Target: T1, Orexin receptor type 2 (Homo sapiens, UniProt O43614)
T1 sequence (O43614 whole entry): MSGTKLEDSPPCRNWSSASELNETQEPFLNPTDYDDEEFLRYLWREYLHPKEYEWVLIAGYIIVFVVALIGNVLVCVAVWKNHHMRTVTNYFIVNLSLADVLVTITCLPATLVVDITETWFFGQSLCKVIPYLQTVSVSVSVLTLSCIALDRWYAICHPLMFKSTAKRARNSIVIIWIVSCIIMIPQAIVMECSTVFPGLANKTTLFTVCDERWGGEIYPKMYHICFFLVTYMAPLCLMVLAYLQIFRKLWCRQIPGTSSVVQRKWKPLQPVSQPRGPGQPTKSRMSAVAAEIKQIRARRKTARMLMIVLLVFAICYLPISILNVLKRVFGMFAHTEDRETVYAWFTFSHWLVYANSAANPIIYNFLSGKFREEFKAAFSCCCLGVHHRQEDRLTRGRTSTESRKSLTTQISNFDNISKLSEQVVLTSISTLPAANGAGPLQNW
Assay: Agonist activity at human OX2R expressed in CHO cells
Type: functional, cell-based

- EC50: 0.9 nM
Structure (SMILES): CCN(C(=O)N[C@@H](C1CCCC(F)(F)C1)C(F)(F)F)[C@H](C)c1cccc(-c2cn3ccnc3c(OC)n2)c1 (stereo partly specified)
